Results: PMC8534003, “The Chemokine-Based Peptide, CXCL9(74-103), Inhibits Angiogenesis by Blocking Heparan Sulfate Proteoglycan-Mediated Signaling of Multiple Endothelial Growth Factors” (Cancers, 2021)

Legend:
[1] = system: phospho-ERK1/2; test: Signal transduction assay, VEGF165-induced ERK phosphorylation in MECs (ELISA); type: cell-based, mouse; conditions: murine VEGF165 5 ng/mL 5 min, peptide 1 µM, n ≥ 3
Protocol: HMVECs and MECs were seeded in 6-well plates at 1.25 × 10^5 cells/well in their respective culture medium. Once the cell density reached 70–80% confluency, the cells were starved in serum-free medium overnight. Fifteen minutes prior to stimulation, cells were incubated with various concentrations of CXCL9(74-103) or CXCL9(86-103) in 0.5% (v/v) BSA in MCDB131 or DMEM medium (assay medium for HMVECs and MECs, respectively) at 37 °C. HMVECs and MECs were stimulated with assay medium alone or supplemented with 10 ng/mL EGF or 5 ng/mL murine VEGF165 at 37 °C for 15 or 5 min, respectively. Then, the cells were placed on ice, washed with ice-cold PBS and 90 µL of lysis buffer [1% (v/v) protease inhibitor cocktail, phosphatase inhibitor cocktail 2 and 3 (all Sigma-Aldrich) in 1 mM ethylenediaminetetraacetic acid (EDTA), 0.5% (v/v) Triton™ X-100, 5 mM NaF, 6 M urea in PBS] was added per well. […] The amount of phospho-ERK1/2 in the cell lysates was determined using an ERK1 (Thr202/Tyr204)/ERK2 (Thr185/Tyr187) ELISA duoset (R&D Systems) according to the manufacturer’s instructions. The amount of phosphorylated ERK was normalized to the total protein content in the samples measured by the Pierce™ bicinchoninic acid (BCA) protein assay kit (Thermo Fisher Scientific).

[2] = reference not given at the value; read-out: KD, heparin binding; cited from earlier work
Text: In our present study, we wanted to explore the potential of CXCL9(74-103), a high affinity GAG-binding peptide, to interfere with angiogenesis by targeting growth factor-induced signaling cascades and associated processes. […] The obtained KD value lies within the range of the concentrations that were applied in the different in vivo and in vitro assays reported here. FGF-2-mediated proliferation, chemotaxis and sprouting in vitro was diminished by CXCL9(74-103). Also in vivo, CXCL9(74-103) treatment attenuated FGF-2-mediated neovascularization in the Matrigel plug assay. The inhibitory mechanism responsible for countering FGF-2 could be that (1) by direct interaction with FGF-2, CXCL9(74-103) can t ...

[3] = system: heparan sulfate (HS) / VEGF165; test: ELISA-like GAG binding assay, competition with VEGF165 for HS binding; parameters: species or system human; conditions: HS 25 µg/mL, pH 7.2, 37 °C, 2 h, n = 5
Protocol: The ability of the CXCL9-derived peptides to compete with VEGF165 for HS binding was assessed in an ELISA-like GAG binding assay. First, the GAG binding plates (Galen Laboratory Supplies, North Haven, CT, USA) were coated with 25 µg/mL HS (Iduron, Alderley Edge, UK) in standard assay buffer (SAB) [100 mM NaCl, 50 mM sodium acetate, 0.2% (v/v) Tween® 20 in ultrapure water, pH 7.2] at room temperature overnight. The plates were washed with SAB and blocked with blocking buffer [SAB supplemented with 0.2% (w/v) gelatin] at 37 °C for 1 h to prevent nonspecific binding. Then, dilutions of VEGF165 and the peptides, CXCL9(74-103) or CXCL9(86-103), were added and allowed to interact at 37 °C for 2 h. Unbound material was removed through washing and biotinylated polyclonal goat anti-human VEGF165 antibody (PeproTech) in blocking buffer was added to interact with HS-bound VEGF165 at 37 °C for 1 h. Following additional washing steps, detection was performed with streptavidin-horseradish peroxidase (HRP) (R&D Systems) in blocking buffer at 37 °C for 30 min and conversion of 3,3’,5,5’-tetramethylbenzidine (TMB) to a colorimetric signal in the presence of 0.015% (v/v) H2O2. The reaction was stopped by the addition of H2SO4 and the absorbance was measured at 450 nm. All incubation steps were performed in the dark.

[4] = system: HMVEC spheroids; test: Spheroid sprouting assay; type: cell-based, human; conditions: FGF-2 10 ng/mL, peptide 3 µM, 16 hours; n = 5 experiments
Protocol: A 1:5 mixture of endothelial cells (4 × 10^4 cells/mL) and methylcellulose (Sigma-Aldrich, Saint Louis, MO, USA; 12 mg/mL in EBM™-2 basal medium) in EBM™-2 cell culture medium was prepared. Drops of 1 × 10^3 HMVECs were plated on a petri dish and allowed to form single spheroids in hanging droplets at 37 °C, 5% CO2 for 24 h. Spheroids were collected, sedimented by centrifugation and resuspended in a mixture of 24 mg/mL methylcellulose in basal EBM™-2, 1 mg/mL collagen type I (BD Biosciences, San Jose, CA, USA), 2.5 mg/mL NaHCO3 and 10 mM NaOH. The suspension was plated in a 96-well plate and the collagen was allowed to polymerize at 37 °C, 5% CO2 for 30 min. Spheroids were left untreated or stimulated with 0.3 or 3 µM of CXCL9(74-103) or 3 µM of CXCL9(86-103) for 15 min prior to addition of 10 ng/mL FGF-2 or 10 ng/mL EGF in EBM™-2 + 3% (v/v) FCS. In some experiments, HMVECs were pretreated with heparinase II (vide infra). After 16 hours, spheroid sprouting was assessed with an inverted Axiovert 200M microscope (Zeiss, Germany) through a 10× objective. The average number of sprouts was calculated and the average sprout length per spheroid was measured using Fiji software.
Sprouting experiments examining the dependency on HS binding for the inhibitory action of CXCL9(74-103) were performed as described above (vide supra). […]

inhibition of VEGF165 binding to HS ([3]; 30-fold molar excess of peptide over VEGF165): ≈ 20% | inhibition of VEGF165 binding to HS ([3]; 300-fold molar excess of peptide over VEGF165): 40%
Sequence: KKVLKVRKSQRSRQKKTT [CXCL9(86-103)]
VEGF165-induced ERK phosphorylation [1]: did not result in a reduction of VEGF165-induced ERK phosphorylation | Kd [2]: 820 nM | sprout outgrowth induced by FGF-2 [4]: had no effect on sprout outgrowth induced by FGF-2
